Literature values, collected in US20070077220A1, “Stable ascorbic acid compositions” (priority 2005, published 2007).

- pK (acid-ionizable hydrogen in water): 4.2
SMILES: O=C1O[C@H]([C@@H](O)CO)C(O)=C1O [L-ascorbic acid]
